Reference: BindingDB's records for doi:10.1016/j.chembiol.2016.06.016 (Massachusetts Institute of Technology, 2016)

Tests used:
Cytochrome b [1] = biological target: Cytochrome b (Homo sapiens, UniProt P00156); experiment: Cytochrome b Enzyme Assay; details: pH 7.4; 25 °C
Procedure: (§1) Reaction plates were incubated at room temperature for 10 min before reading absorbance at 550 nm. Absolute IC50 values were calculated in GraphPad Prism 6.0.

Cytochrome b [2] = biological target: T1, Cytochrome b (Candida albicans, UniProt I2BJW5); experiment: Cytochrome b Enzyme Assay; details: pH 7.4; 25 °C
T1 sequence (I2BJW5 whole entry): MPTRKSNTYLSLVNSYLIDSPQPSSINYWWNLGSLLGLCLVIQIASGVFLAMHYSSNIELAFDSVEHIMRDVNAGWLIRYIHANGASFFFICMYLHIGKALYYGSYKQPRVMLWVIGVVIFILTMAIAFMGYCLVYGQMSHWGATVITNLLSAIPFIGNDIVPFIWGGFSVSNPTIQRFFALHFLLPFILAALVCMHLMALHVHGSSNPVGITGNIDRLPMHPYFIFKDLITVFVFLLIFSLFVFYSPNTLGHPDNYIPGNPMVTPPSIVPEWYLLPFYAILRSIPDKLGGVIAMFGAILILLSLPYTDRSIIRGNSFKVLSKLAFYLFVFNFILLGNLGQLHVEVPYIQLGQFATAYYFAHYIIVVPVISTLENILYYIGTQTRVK
Procedure: as §1

Sequence of Cytochrome b (Homo sapiens, UniProt P00156) (P00156 whole entry): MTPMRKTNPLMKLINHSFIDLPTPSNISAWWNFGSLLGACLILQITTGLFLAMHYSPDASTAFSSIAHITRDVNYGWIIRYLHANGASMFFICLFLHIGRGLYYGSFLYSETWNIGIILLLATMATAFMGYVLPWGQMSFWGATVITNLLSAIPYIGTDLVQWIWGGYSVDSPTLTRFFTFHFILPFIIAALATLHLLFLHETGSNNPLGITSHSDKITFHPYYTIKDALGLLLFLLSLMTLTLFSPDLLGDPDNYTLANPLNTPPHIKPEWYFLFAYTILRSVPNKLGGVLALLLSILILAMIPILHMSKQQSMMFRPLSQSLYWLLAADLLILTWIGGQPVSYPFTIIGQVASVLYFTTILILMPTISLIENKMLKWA

O=C1C(=O)c2ccccc2C(O)=C1C1CCC(c2ccc(Cl)cc2)CC1 (stereo not given) [3-[4-(4-chlorophenyl)cyclohexyl]-4-hydroxynaphthalene-1,2-dione]
IC50 (Cytochrome b [1]): 1.88 µM | IC50 (Cytochrome b [2]): 3.79 µM

COC(=O)Cn1nc(-c2ccccc2)c2ccccc21 [Inz-1]
IC50 (Cytochrome b [1]): 45.3 µM | IC50 (Cytochrome b [2]): 8.09 µM

COC(=O)Cn1nc(-c2cc(C(F)(F)F)ccc2F)c2ccccc21 [Inz-2]
IC50 (Cytochrome b [1]): 4.62 µM | IC50 (Cytochrome b [2]): 0.145 µM

COC(=O)Cn1nc(-c2ccccc2)c2cccc(C)c21 [Inz-3]
IC50 (Cytochrome b [1]): 21.3 µM | IC50 (Cytochrome b [2]): 1.01 µM

COC(=O)Cn1nc(-c2cc(C(F)(F)F)ccc2F)c2cccc(C)c21 [Inz-4]
IC50 (Cytochrome b [1]): 1.04 µM | IC50 (Cytochrome b [2]): 0.026 µM

Cc1cccc2c(-c3cc(C(F)(F)F)ccc3F)nn(Cc3nnn(C)n3)c12 [Inz-5]
IC50 (Cytochrome b [1]): 6.51 µM | IC50 (Cytochrome b [2]): 0.289 µM

COC(=O)Cn1nc(-c2cccc(OC)c2)c2ccccc21 [Inz-6]
IC50 (Cytochrome b [1]): 28.4 µM | IC50 (Cytochrome b [2]): 1.52 µM

COC(=O)Cn1nc(-c2cccc(Oc3ccccc3)c2)c2ccccc21 [Inz-7]
IC50 (Cytochrome b [1]): 9.97 µM | IC50 (Cytochrome b [2]): 0.714 µM

COC(=O)Cn1nc(-c2cccc(OCCc3ccccc3)c2)c2ccccc21 [Inz-8]
IC50 (Cytochrome b [1]): 13.9 µM | IC50 (Cytochrome b [2]): 0.346 µM

COC(=O)Cn1nc(-c2cccc(OCC3CCCCC3)c2)c2ccccc21 [Inz-9]
IC50 (Cytochrome b [1]): 0.889 µM | IC50 (Cytochrome b [2]): 0.087 µM

COC(=O)Cn1nc(-c2cccc(C(F)(F)F)c2)c2ccccc21 [Inz-10]
IC50 (Cytochrome b [1]): 8.65 µM | IC50 (Cytochrome b [2]): 1.06 µM

COC(=O)Cn1nc(-c2cccc(C#N)c2)c2ccccc21 [Inz-11]
IC50 (Cytochrome b [1]): > 64 µM | IC50 (Cytochrome b [2]): 10.1 µM

COC(=O)Cn1nc(-c2cccc([N+](=O)[O-])c2)c2ccccc21 [Inz-12]
IC50 (Cytochrome b [1]): > 64 µM | IC50 (Cytochrome b [2]): 6.07 µM

COC(=O)Cn1nc(-c2ccsc2)c2ccccc21 [Inz-13]
IC50 (Cytochrome b [1]): > 64 µM | IC50 (Cytochrome b [2]): 9.23 µM

COC(=O)Cn1nc(-c2cccnc2)c2ccccc21 [Inz-14]
IC50 (Cytochrome b [1]): > 64 µM | IC50 (Cytochrome b [2]): > 64 µM

COC(=O)Cn1nc(-c2ccccn2)c2ccccc21 [Inz-15]
IC50 (Cytochrome b [1]): > 64 µM | IC50 (Cytochrome b [2]): 62.4 µM

COC(=O)Cn1nc(-c2ccccc2OC)c2ccccc21 [Inz-16]
IC50 (Cytochrome b [1]): > 64 µM | IC50 (Cytochrome b [2]): 22.9 µM

COC(=O)Cn1nc(-c2ccccc2C)c2ccccc21 [Inz-17]
IC50 (Cytochrome b [1]): > 64 µM | IC50 (Cytochrome b [2]): 3.37 µM

COC(=O)Cn1nc(-c2ccccc2Cl)c2ccccc21 [Inz-18]
IC50 (Cytochrome b [1]): > 64 µM | IC50 (Cytochrome b [2]): 5.41 µM

COC(=O)Cn1nc(-c2ccccc2F)c2ccccc21 [Inz-19]
IC50 (Cytochrome b [1]): 36 µM | IC50 (Cytochrome b [2]): 2.97 µM

COC(=O)Cn1nc(-c2ccccc2C#N)c2ccccc21 [Inz-20]
IC50 (Cytochrome b [1]): > 64 µM | IC50 (Cytochrome b [2]): > 64 µM

COC(=O)Cn1nc(-c2cc(C(F)(F)F)ccc2F)c2cc(C(F)(F)F)ccc21 [Inz-21]
IC50 (Cytochrome b [1]): > 64 µM | IC50 (Cytochrome b [2]): > 64 µM

COC(=O)Cn1nc(-c2cc(C(F)(F)F)ccc2F)c2c(C(F)(F)F)cccc21 [Inz-22]
IC50 (Cytochrome b [1]): > 64 µM | IC50 (Cytochrome b [2]): 46.8 µM

COC(=O)Cn1nc(-c2cc(C(F)(F)F)ccc2F)c2c(C)cccc21 [Inz-23]
IC50 (Cytochrome b [1]): > 64 µM | IC50 (Cytochrome b [2]): 10.8 µM

O=C(O)Cn1nc(-c2ccccc2)c2ccccc21 [Inz-24]
IC50 (Cytochrome b [1]): > 64 µM | IC50 (Cytochrome b [2]): > 64 µM

CNC(=O)Cn1nc(-c2ccccc2)c2ccccc21 [Inz-25]
IC50 (Cytochrome b [1]): > 64 µM | IC50 (Cytochrome b [2]): > 64 µM

CON(C)C(=O)Cn1nc(-c2ccccc2)c2ccccc21 [Inz-26]
IC50 (Cytochrome b [1]): > 64 µM | IC50 (Cytochrome b [2]): > 64 µM

CS(=O)(=O)Cn1nc(-c2ccccc2)c2ccccc21 [Inz-27]
IC50 (Cytochrome b [1]): > 64 µM | IC50 (Cytochrome b [2]): > 64 µM

FC(F)(F)Cn1nc(-c2ccccc2)c2ccccc21 [Inz-28]
IC50 (Cytochrome b [1]): > 64 µM | IC50 (Cytochrome b [2]): > 64 µM

c1ccc(-c2nn(Cc3cncs3)c3ccccc23)cc1 [Inz-29]
IC50 (Cytochrome b [1]): > 64 µM | IC50 (Cytochrome b [2]): > 64 µM

c1ccc(-c2nn(Cc3nccs3)c3ccccc23)cc1 [Inz-30]
IC50 (Cytochrome b [1]): > 64 µM | IC50 (Cytochrome b [2]): > 64 µM

Cc1cc(Cn2nc(-c3ccccc3)c3ccccc32)on1 [Inz-31]
IC50 (Cytochrome b [1]): > 64 µM | IC50 (Cytochrome b [2]): > 64 µM

Cc1nnc(Cn2nc(-c3ccccc3)c3ccccc32)o1 [Inz-32]
IC50 (Cytochrome b [1]): > 64 µM | IC50 (Cytochrome b [2]): > 64 µM

c1ccc(-c2nn(Cc3nn[nH]n3)c3ccccc23)cc1 [Inz-33]
IC50 (Cytochrome b [1]): > 64 µM | IC50 (Cytochrome b [2]): > 64 µM

Cn1nnc(Cn2nc(-c3ccccc3)c3ccccc32)n1 [Inz-34]
IC50 (Cytochrome b [1]): > 64 µM | IC50 (Cytochrome b [2]): 22.6 µM

Cn1cc(Cn2nc(-c3ccccc3)c3ccccc32)nn1 [Inz-35]
IC50 (Cytochrome b [1]): > 64 µM | IC50 (Cytochrome b [2]): > 64 µM

c1ccc(-c2nn(Cc3ncccn3)c3ccccc23)cc1 [Inz-36]
IC50 (Cytochrome b [1]): > 64 µM | IC50 (Cytochrome b [2]): > 64 µM

c1ccc(-c2nn(Cc3cnccn3)c3ccccc23)cc1 [Inz-37]
IC50 (Cytochrome b [1]): > 64 µM | IC50 (Cytochrome b [2]): 5.42 µM

Cc1cccc2c(-c3cc(C(F)(F)F)ccc3F)nn(Cc3cnccn3)c12 [Inz-38]
IC50 (Cytochrome b [1]): > 64 µM | IC50 (Cytochrome b [2]): 0.602 µM

Fc1ccc(C(F)(F)F)cc1-c1nn(Cc2cnccn2)c2c(F)cccc12 [Inz-39]
IC50 (Cytochrome b [1]): 10.8 µM | IC50 (Cytochrome b [2]): 0.141 µM

CCOc1cccc(-c2nn(CC(=O)OC)c3ccccc23)c1 [Inz-40]
IC50 (Cytochrome b [1]): 28.1 µM | IC50 (Cytochrome b [2]): 0.981 µM

COC(=O)Cn1nc(-c2cccc(O)c2)c2ccccc21 [Inz-41]
IC50 (Cytochrome b [1]): > 64 µM | IC50 (Cytochrome b [2]): 44.1 µM

COC(=O)Cn1nc(-c2cccc(OCc3ccccc3)c2)c2ccccc21 [Inz-42]
IC50 (Cytochrome b [1]): > 64 µM | IC50 (Cytochrome b [2]): 7.24 µM

CCC(=O)Cn1nc(-c2cccc(OCc3ccccc3)c2)c2ccccc21 [Inz-43]
IC50 (Cytochrome b [1]): > 64 µM | IC50 (Cytochrome b [2]): 22.8 µM

Cn1nc(-c2cccc(OCc3ccccc3)c2)c2ccccc21 [Inz-44]
IC50 (Cytochrome b [1]): > 64 µM | IC50 (Cytochrome b [2]): > 64 µM

COC(=O)Cn1nc(-c2cccc(CCc3ccccc3)c2)c2ccccc21 [Inz-45]
IC50 (Cytochrome b [1]): 1.17 µM | IC50 (Cytochrome b [2]): 0.0663 µM

c1ccc(COc2cccc(-c3n[nH]c4ccccc34)c2)cc1 [Inz-46]
IC50 (Cytochrome b [1]): > 64 µM | IC50 (Cytochrome b [2]): > 64 µM

O=C(O)Cn1nc(-c2cccc(OCc3ccccc3)c2)c2ccccc21 [Inz-47]
IC50 (Cytochrome b [1]): > 64 µM | IC50 (Cytochrome b [2]): > 64 µM

COC(=O)Cn1ccc(-c2cccc(OCc3ccccc3)c2)n1 [Inz-48]
IC50 (Cytochrome b [1]): > 64 µM | IC50 (Cytochrome b [2]): > 64 µM

COC(=O)Cn1ncc2ccccc21 [Inz-49]
IC50 (Cytochrome b [1]): > 64 µM | IC50 (Cytochrome b [2]): > 64 µM

COC(=O)Cn1cc(-c2cccc(OCc3ccccc3)c2)c2ccccc21 [Inz-50]
IC50 (Cytochrome b [1]): > 64 µM | IC50 (Cytochrome b [2]): 13.1 µM

COC(=O)Cn1nc(-c2ccccc2C(F)(F)F)c2ccccc21 [Inz-51]
IC50 (Cytochrome b [1]): > 64 µM | IC50 (Cytochrome b [2]): 50.5 µM

COC(=O)Cn1nc(-c2ccccc2O)c2ccccc21 [Inz-52]
IC50 (Cytochrome b [1]): > 64 µM | IC50 (Cytochrome b [2]): 3.57 µM

COC(=O)Cn1nc(-c2ccc(CCc3ccccc3)cc2)c2ccccc21 [Inz-53]
IC50 (Cytochrome b [1]): > 64 µM | IC50 (Cytochrome b [2]): 43.4 µM

COC(=O)Cn1nc(-c2cccc(OCC(C)C)c2)c2ccccc21 [Inz-54]
IC50 (Cytochrome b [1]): 9.23 µM | IC50 (Cytochrome b [2]): 0.344 µM

COC(=O)Cn1nc(-c2ccccc2OCc2ccccc2)c2ccccc21 [Inz-55]
IC50 (Cytochrome b [1]): > 64 µM | IC50 (Cytochrome b [2]): > 64 µM

COC(=O)Cn1c(C)c(-c2cccc(OCc3ccccc3)c2)c2ccccc21 [Inz-56]
IC50 (Cytochrome b [1]): > 64 µM | IC50 (Cytochrome b [2]): > 64 µM

COC(=O)Cn1nc(-c2cccc(OCCC(C)C)c2)c2ccccc21 [Inz-57]
IC50 (Cytochrome b [1]): 4.77 µM | IC50 (Cytochrome b [2]): 0.156 µM

COC(=O)Cn1nc(-c2c(C)cccc2C)c2ccccc21 [Inz-58]
IC50 (Cytochrome b [1]): > 64 µM | IC50 (Cytochrome b [2]): > 64 µM

COC(=O)Cn1nc(-c2c(F)cccc2F)c2ccccc21 [Inz-59]
IC50 (Cytochrome b [1]): > 64 µM | IC50 (Cytochrome b [2]): 2.36 µM
